These results are taken from US20240238423A9, “TETRAHYDROISOQUINOLINE HETEROBIFUNCTIONAL BCL-XL DEGRADERS” (Treeline Biosciences, Inc., priority 2022, published 2024).

Read-outs that look alike come from different tables or passages of the source.

The assay concerns the target T1, Human BCL-XL protein (N-terminal HiBiT tagged BCL-XL in HT1080 cells) (Homo sapiens, UniProt Q07817).
T1 construct: expressed in transfected cells; host or cells: HT-1080 (ATCC CCL-121), stably transduced with lentivirus pLV-UBC-N-HiBiT-BCL-XL-PGK-puro and selected with puromycin
Description: HiBiT based degradation assay. The class given is cell-based. To be noted: HT1080 cells expressing HiBiT-BCL-XL; for Ymin (6 h) / Ymin (24 h): BCL-XL degradation normalized with DMSO control; for DC50: BCL-XL degradation. An outline of the steps:
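This HiBiT degradation assay measured loss of BCL-XL in HT1080 cells that stably express an N-terminal HiBiT-BCL-XL fusion delivered by lentivirus. Cells were added to compound-spotted 384-well plates, and luminescence was read on a PHERAstar FSX reader. Signal was expressed relative to DMSO controls, curves were fitted by four-parameter logistic regression, and for hook-shaped curves the Ymin point served as the bottom plateau when calculating EC50.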
On the technique in general: HiBiT is a short tag that completes a luciferase, so light tracks the accessible tagged protein.

T1 sequence (Q07817 whole entry): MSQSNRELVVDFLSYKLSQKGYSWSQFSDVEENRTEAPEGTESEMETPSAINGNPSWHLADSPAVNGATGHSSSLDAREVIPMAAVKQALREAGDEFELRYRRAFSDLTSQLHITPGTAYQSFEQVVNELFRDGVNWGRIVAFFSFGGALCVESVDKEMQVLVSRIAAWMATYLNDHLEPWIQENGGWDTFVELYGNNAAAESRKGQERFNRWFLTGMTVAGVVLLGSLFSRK

On to `Cc1c(OCC2CC3(CCN(CC(=O)Nc4ccc5c(C6CCC(=O)NC6=O)nn(C)c5c4)CC3)C2)cccc1-c1ccc(N2CCc3cccc(C(=O)Nc4nc5ccccc5s4)c3C2)nc1C(=O)O` (stereo not drawn) [Compound 156, 6-(8-(benzo[d]thiazol-2-ylcarbamoyl)-3,4-dihydroisoquinolin-2(1H)-yl)-3-(3-((7-(2-((3-(2,6-dioxopiperidin-3-yl)-1-methyl-1H-indazol-6-yl)amino)-2-oxoethyl)-7-azaspiro[3.5]nonan-2-yl)methoxy)-2-methylphenyl)picolinic acid], for which the “Ymin (6 h)” value (6 h) is recorded as “A (Ymin < 50%)”. Also, for the setting “24 h”, the “Ymin (24 h)” value was “A (Ymin < 50%)”. Further, the DC50 (6 h, read-out: EC50 (6 h)) is under 100 nM and the DC50 (24 h, read-out: EC50 (24 h)) is under 100 nM.

On to `Cc1c(-c2ccc(N3CCc4cccc(C(=O)Nc5nc6ccccc6s5)c4C3)nc2C(=O)NCCCCCCCC(=O)Nc2ccc3c(C4CCC(=O)NC4=O)nn(C)c3c2)cnn1CC12CC3CC(CC(C3)C1)C2` (stereo not drawn) [Compound 157, 2-(5-(1-(((3r,5r,7r)-adamantan-1-yl)methyl)-5-methyl-1H-pyrazol-4-yl)-6-((8-((3-(2,6-dioxopiperidin-3-yl)-1-methyl-1H-indazol-6-yl)amino)-8-oxooctyl)carbamoyl)pyridin-2-yl)-N-(benzo[d]thiazol-2-yl)-1,2,3,4-tetrahydroisoquinoline-8-carboxamide], for which, where the note is “6 h”, the “Ymin (6 h)” value was “B (50% ≤ Ymin < 70%)”. The DC50 (6 h, read-out: EC50 (6 h)) is under 100 nM.

With `Cc1c(OCCCC2CCN(CC(=O)Nc3cccc4c(C5CCC(=O)NC5=O)nn(C)c34)CC2)cccc1-c1ccc(N2CCc3cccc(C(=O)Nc4nc5ccccc5s4)c3C2)nc1C(=O)O` (stereo not drawn) [Compound 158, 6-(8-(benzo[d]thiazol-2-ylcarbamoyl)-3,4-dihydroisoquinolin-2(1H)-yl)-3-(3-(3-(1-(2-((3-(2,6-dioxopiperidin-3-yl)-1-methyl-1H-indazol-7-yl)amino)-2-oxoethyl)piperidin-4-yl)propoxy)-2-methylphenyl)picolinic acid], the “Ymin (6 h)” value (6 h) is given as “C (Ymin ≥ 70%)”. For the same compound, the “Ymin (24 h)” value (24 h) is recorded as “B (50% ≤ Ymin < 70%)”. In addition, the DC50 was under 100 nM (6 h, read-out: EC50 (6 h)) and 100 to 1000 nM (24 h, read-out: EC50 (24 h)).

As to `Cc1c(OCCN2C[C@@H](C)N(CC(=O)Nc3ccc4c(C5CCC(=O)NC5=O)nn(C)c4c3)[C@@H](C)C2)cccc1-c1ccc(N2CCc3cccc(C(=O)Nc4nc5ccccc5s4)c3C2)nc1C(=O)O` (stereo partly drawn) [Compound 159a, 6-(8-(benzo[d]thiazol-2-ylcarbamoyl)-3,4-dihydroisoquinolin-2(1H)-yl)-3-(3-(2-((3R,5S)-4-(2-((3-(2,6-dioxopiperidin-3-yl)-1-methyl-1H-indazol-6-yl)amino)-2-oxoethyl)-3,5-dimethylpiperazin-1-yl)ethoxy)-2-methylphenyl)picolinic acid], under “6 h”, the “Ymin (6 h)” value is listed as “B (50% ≤ Ymin < 70%)”. Further, the DC50 (6 h, read-out: EC50 (6 h)) was under 100 nM.

`Cc1c(OCCC[C@@H]2CCN(CC(=O)Nc3ccc4c(C5CCC(=O)NC5=O)nn(C)c4c3)C2)cccc1-c1ccc(N2CCc3cccc(C(=O)Nc4nc5ccccc5s4)c3C2)nc1C(=O)O` (stereo partly drawn) [Compound 160a, 6-[8-(1,3-benzothiazol-2-ylcarbamoyl)-3,4-dihydro-1H-isoquinolin-2-yl]-3-[3-[3-[(3R)-1-[2-[[3-(2,6-dioxo-3-piperidyl)-1-methyl-indazol-6-yl]amino]-2-oxo-ethyl]pyrrolidin-3-yl]propoxy]-2-methyl-phenyl]pyridine-2-carboxylic acid]: for the setting “24 h”, the “Ymin (24 h)” value is given as “A (Ymin < 50%)”. Also, the DC50 (24 h, read-out: EC50 (24 h)) was under 100 nM.

On to `Cc1c(OCCC[C@H]2CCN(CC(=O)Nc3ccc4c(C5CCC(=O)NC5=O)nn(C)c4c3)C2)cccc1-c1ccc(N2CCc3cccc(C(=O)Nc4nc5ccccc5s4)c3C2)nc1C(=O)O` (stereo partly drawn) [Compound 160b, 6-(8-(benzo[d]thiazol-2-ylcarbamoyl)-3,4-dihydroisoquinolin-2(1H)-yl)-3-(3-(3-((3S)-1-(2-((3-(2,6-dioxopiperidin-3-yl)-1-methyl-1H-indazol-6-yl)amino)-2-oxoethyl)pyrrolidin-3-yl)propoxy)-2-methylphenyl)picolinic acid], for which the “Ymin (24 h)” value (24 h) is listed as “A (Ymin < 50%)”. The DC50 (24 h, read-out: EC50 (24 h)) was under 100 nM.

With `Cc1c(O[C@H]2CC[C@H](CCCCN3CCN(c4ccc5c(C6CCC(=O)NC6=O)nn(C)c5c4)CC3)CC2)cccc1-c1ccc(N2CCc3cccc(C(=O)Nc4nc5ccccc5s4)c3C2)nc1C(=O)O` (stereo partly drawn) [Compound 161a, 6-(8-(benzo[d]thiazol-2-ylcarbamoyl)-3,4-dihydroisoquinolin-2(1H)-yl)-3-(3-(((1s,4r)-4-(4-(4-(3-(2,6-dioxopiperidin-3-yl)-1-methyl-1H-indazol-6-yl)piperazin-1-yl)butyl)cyclohexyl)oxy)-2-methylphenyl)picolinic acid], the “Ymin (24 h)” value (24 h) was “A (Ymin < 50%)”. For the same compound, the DC50 (24 h, read-out: EC50 (24 h)) was under 100 nM.

As to `Cc1c(O[C@@H](C)CCC2CCN(CC(=O)Nc3ccc4c(C5CCC(=O)NC5=O)nn(C)c4c3)CC2)cccc1-c1ccc(N2CCc3cccc(C(=O)Nc4nc5ccccc5s4)c3C2)nc1C(=O)O` (stereo partly drawn) [Compound 162a, 6-[8-(1,3-benzothiazol-2-ylcarbamoyl)-3,4-dihydro-H-isoquinolin-2-yl]-3-[3-[(1 S)-3-[1-[2-[[3-(2,6-dioxo-3-piperidyl)-1-methyl-indazol-6-yl]amino]-2-oxo-ethyl]-4-piperidyl]-1-methyl-propoxy]-2-methyl-phenyl]pyridine-2-carboxylic acid], for the setting “6 h”, the “Ymin (6 h)” value is “B (50% ≤ Ymin < 70%)”. Also, the “Ymin (24 h)” value (24 h) is “A (Ymin < 50%)”. The DC50 reads like this: (6 h, read-out: EC50 (6 h)) under 100 nM; (24 h, read-out: EC50 (24 h)) under 100 nM.

In the case of `Cc1c(O[C@H](C)CCC2CCN(CC(=O)Nc3ccc4c(C5CCC(=O)NC5=O)nn(C)c4c3)CC2)cccc1-c1ccc(N2CCc3cccc(C(=O)Nc4nc5ccccc5s4)c3C2)nc1C(=O)O` (stereo partly drawn) [Compound 162b, 6-[8-(1,3-benzothiazol-2-ylcarbamoyl)-3,4-dihydro-1H-isoquinolin-2-yl]-3-[3-[(1R)-3-[1-[2-[[3-(2,6-dioxo-3-piperidyl)-1-methyl-indazol-6-yl]amino]-2-oxo-ethyl]-4-piperidyl]-1-methyl-propoxy]-2-methyl-phenyl]pyridine-2-carboxylic acid], the “Ymin (6 h)” value (6 h) is “C (Ymin ≥ 70%)”. The “Ymin (24 h)” value (24 h) is given as “B (50% ≤ Ymin < 70%)”. Moreover, the DC50 runs as follows: (6 h, read-out: EC50 (6 h)) 100 to 1000 nM; (24 h, read-out: EC50 (24 h)) under 100 nM.

With `Cc1c(Oc2ccc(CCCCN3CCN(c4ccc5c(C6CCC(=O)NC6=O)nn(C)c5c4)CC3)cc2)cccc1-c1ccc(N2CCc3cccc(C(=O)Nc4nc5ccccc5s4)c3C2)nc1C(=O)O` (stereo not drawn) [Compound 163, 6-(8-(benzo[d]thiazol-2-ylcarbamoyl)-3,4-dihydroisoquinolin-2(1H)-yl)-3-(3-(4-(4-(4-(3-(2,6-dioxopiperidin-3-yl)-1-methyl-1H-indazol-6-yl)piperazin-1-yl)butyl)phenoxy)-2-methylphenyl)picolinic acid], the “Ymin (24 h)” value (24 h) is “A (Ymin < 50%)”. Besides, the DC50 (24 h, read-out: EC50 (24 h)) is under 100 nM.

On to `Cc1c(OCCCC2CCN([C@@H](C)C(=O)Nc3ccc4c(C5CCC(=O)NC5=O)nn(C)c4c3)CC2)cccc1-c1ccc(N2CCc3cccc(C(=O)Nc4nc5ccccc5s4)c3C2)nc1C(=O)O` (stereo partly drawn) [Compound 164a, 6-(8-(benzo[d]thiazol-2-ylcarbamoyl)-3,4-dihydroisoquinolin-2(1H)-yl)-3-(3-(3-(1-((2S)-1-((3-(2,6-dioxopiperidin-3-yl)-1-methyl-1H-indazol-6-yl)amino)-1-oxopropan-2-yl)piperidin-4-yl)propoxy)-2-methylphenyl)picolinic acid], for which the “Ymin (24 h)” value (24 h) is given as “A (Ymin < 50%)”. The DC50 (24 h, read-out: EC50 (24 h)) is under 100 nM.

On to `Cc1c(OCCCC2CCN([C@H](C)C(=O)Nc3ccc4c(C5CCC(=O)NC5=O)nn(C)c4c3)CC2)cccc1-c1ccc(N2CCc3cccc(C(=O)Nc4nc5ccccc5s4)c3C2)nc1C(=O)O` (stereo partly drawn) [Compound 164b, 6-(8-(benzo[d]thiazol-2-ylcarbamoyl)-3,4-dihydroisoquinolin-2(1H)-yl)-3-(3-(3-(1-((2R)-1-((3-(2,6-dioxopiperidin-3-yl)-1-methyl-1H-indazol-6-yl)amino)-1-oxopropan-2-yl)piperidin-4-yl)propoxy)-2-methylphenyl)picolinic acid], for which, for the setting “24 h”, the “Ymin (24 h)” value was “A (Ymin < 50%)”. For the same compound, for the setting “24 h, read-out: EC50 (24 h)”, the DC50 was under 100 nM.

Turning to `Cc1c(OCCCN2CCN(CCCOc3ccc4c(C5CCC(=O)NC5=O)nn(C)c4c3)C(C(F)(F)F)C2)cccc1-c1ccc(N2CCc3cccc(C(=O)Nc4nc5ccccc5s4)c3C2)nc1C(=O)O` (stereo not drawn) [Compound 165, 6-(8-(benzo[d]thiazol-2-ylcarbamoyl)-3,4-dihydroisoquinolin-2(1H)-yl)-3-(3-(3-(4-(3-((3-(2,6-dioxopiperidin-3-yl)-1-methyl-1H-indazol-6-yl)oxy)propyl)-3-(trifluoromethyl)piperazin-1-yl)propoxy)-2-methylphenyl)picolinic acid], the “Ymin (24 h)” value (24 h) is recorded as “B (50% ≤ Ymin < 70%)”. Under “24 h, read-out: EC50 (24 h)”, the DC50 lay in the range of 100 to 1000 nM.

Consider `Cc1c(OCCCC2CCN(C(C)(C)C(=O)Nc3ccc4c(C5CCC(=O)NC5=O)nn(C)c4c3)CC2)cccc1-c1ccc(N2CCc3cccc(C(=O)Nc4nc5ccccc5s4)c3C2)nc1C(=O)O` (stereo not drawn) [Compound 166, 6-[8-(1,3-benzothiazol-2-ylcarbamoyl)-3,4-dihydro-1H-isoquinolin-2-yl]-3-[3-[3-[1-[2-[[3-(2,6-dioxo-3-piperidyl)-1-methyl-indazol-6-yl]amino]-1,1-dimethyl-2-oxo-ethyl]-4-piperidyl]propoxy]-2-methyl-phenyl]pyridine-2-carboxylic acid], for which, under “24 h”, the “Ymin (24 h)” value was “B (50% ≤ Ymin < 70%)”. Moreover, under “24 h, read-out: EC50 (24 h)”, the DC50 was in the range of 100 to 1000 nM.
